From EP4562003B1, “NOVEL 7-SUBSTITUTED INDOLE SULFONAMIDE DERIVATIVES” (F. Hoffmann-La Roche AG, priority 2022, dated 2024) come the findings set out here.

Structures are written as SMILES. pIC50: −log10 of the molar value.

This assay has as its target human GPR17 short isoform (Homo sapiens, UniProt Q13304). Put plainly: GPR17 cAMP assay (TR-FRET cAMP quantification, antagonist mode). Format: cell-based. The settings on record: CHO-K1 cells stably expressing human GPR17 short isoform; EC80 of agonist MDL29,951; forskolin 15µM; IBMX 0.5mM; 30 minutes at room temperature; read-out: hGPR17 cAMP IC50. The procedure, abridged:
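CHO-K1 cells stably expressing untagged human GPR17 short isoform, 10'000 cells/well in HBSS/10mM HEPES/0.1% BSA pH 7.4. Compounds added with EC80 MDL29,951 plus 0.5mM IBMX, then 15µM forskolin; 30 min at room temperature. cAMP read by TR-FRET after 90 min lysis; normalized to reference antagonist maximal activity, sigmoidal fit.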
On the technique in general: Cyclic AMP is a second messenger, typically raised through Gs and lowered through Gi signalling.

One may read the pIC50 as the IC50 on a negative log10 scale, so that one unit is a factor of ten.

Sequence of human GPR17 short isoform (Q13304 29-367): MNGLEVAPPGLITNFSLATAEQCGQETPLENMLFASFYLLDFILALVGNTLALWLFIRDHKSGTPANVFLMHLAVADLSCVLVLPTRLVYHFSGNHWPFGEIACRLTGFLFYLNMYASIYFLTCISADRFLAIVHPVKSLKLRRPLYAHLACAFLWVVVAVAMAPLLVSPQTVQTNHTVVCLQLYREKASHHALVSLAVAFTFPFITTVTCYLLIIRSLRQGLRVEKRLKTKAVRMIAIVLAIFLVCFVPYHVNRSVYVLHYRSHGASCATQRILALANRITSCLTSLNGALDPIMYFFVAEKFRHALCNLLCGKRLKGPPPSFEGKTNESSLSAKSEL

Take `COc1nc(NS(=O)(=O)c2c[nH]c3c(-c4cnn(C)c4)c(Cl)ccc23)nc(OC)c1OCCF` [Example 112, 6-chloro-N-[5-(2-fluoroethoxy)-4,6-dimethoxy-pyrimidin-2-yl]-7-(1-methylpyrazol-4-yl)-1H-indole-3-sulfonamide]: the pIC50 was 7.28. On to `COc1nc(NS(=O)(=O)c2c[nH]c3c(-c4cnn(C)c4)c(Cl)ccc23)nc(OC)c1OC(F)F` [Example 113, 6-chloro-N-[5-(difluoromethoxy)-4,6-dimethoxy-pyrimidin-2-yl]-7-(1-methylpyrazol-4-yl)-1H-indole-3-sulfonamide], for which the negative logarithm of the IC50 (pIC50) was 7.09. For `COc1nc(NS(=O)(=O)c2c[nH]c3c(-c4cnn(C)c4)c(Cl)ccc23)nc(OC)c1CC(F)F` [Example 114, 6-chloro-N-[5-(2,2-difluoroethyl)-4,6-dimethoxy-pyrimidin-2-yl]-7-(1-methylpyrazol-4-yl)-1H-indole-3-sulfonamide] the value was 7.26. For `COc1nc(NS(=O)(=O)c2c[nH]c3c(-c4cscn4)c(Cl)ccc23)nc(OC)c1OCC(F)F` [Example 115, 6-chloro-N-[5-(2,2-difluoroethoxy)-4,6-dimethoxy-pyrimidin-2-yl]-7-thiazol-4-yl-1H-indole-3-sulfonamide], the pIC50 was 7.40. For `COc1nc(NS(=O)(=O)c2c[nH]c3c(-c4cnco4)c(Cl)ccc23)nc(OC)c1OCC(F)F` [Example 116, 6-chloro-N-[5-(2,2-difluoroethoxy)-4,6-dimethoxy-pyrimidin-2-yl]-7-oxazol-5-yl-1H-indole-3-sulfonamide] the value was 7.23; for `COc1nc(NS(=O)(=O)c2c[nH]c3c(-c4cnco4)c(Cl)ccc23)nc(OC)c1OC(F)F` [Example 117, 6-chloro-N-[5-(difluoromethoxy)-4,6-dimethoxy-pyrimidin-2-yl]-7-oxazol-5-yl-1H-indole-3-sulfonamide], 6.97.

For `COc1nc(NS(=O)(=O)c2c[nH]c3c(-c4cnoc4)c(Cl)ccc23)nc(OC)c1OCC(F)F` [Example 118, 6-chloro-N-[5-(2,2-difluoroethoxy)-4,6-dimethoxy-pyrimidin-2-yl]-7-isoxazol-4-yl-1H-indole-3-sulfonamide], the negative logarithm of the IC50 (pIC50) is 7.20. Regarding `COc1nc(NS(=O)(=O)c2c[nH]c3c(-c4cnoc4)c(Cl)ccc23)nc(OC)c1OC(F)F` [Example 119, 6-chloro-N-[5-(difluoromethoxy)-4,6-dimethoxy-pyrimidin-2-yl]-7-isoxazol-4-yl-1H-indole-3-sulfonamide], the negative-log IC50 (pIC50) is 6.89. Under `COc1nc(NS(=O)(=O)c2c[nH]c3c(-c4cscn4)c(Cl)ccc23)nc(OC)c1OC(F)F` [Example 120, 6-chloro-N-[5-(difluoromethoxy)-4,6-dimethoxy-pyrimidin-2-yl]-7-thiazol-4-yl-1H-indole-3-sulfonamide] stands 6.83; under `COc1nc(NS(=O)(=O)c2c[nH]c3c(-c4ncc5n4CCC5)cccc23)nc(OC)c1CC(F)F` [Example 121, N-[5-(2,2-difluoroethyl)-4,6-dimethoxy-pyrimidin-2-yl]-7-(6,7-dihydro-5H-pyrrol[1,2-c]imidazol-3-yl)-1H-indole-3-sulfonamide], 7.34.
